# Source: patent publication EP2576536B1, “HAEMATOPOIETIC-PROSTAGLANDIN D2 SYNTHASE INHIBITORS” (priority 2010, dated 2011)
# Values joined by “and” are separate entries in the source; they are usually repeats but may differ in a detail not shown here. Equal entries are not always repeated. Where two headings read alike, the source gives them in different places.
# Legend:
# [1] = tested on: mouse primary bone marrow-derived macrophages (BMM); experiment: PGD2 production in LPS-activated BMM (EIA); assay type: cell-based
# Description: (§1) The human megakaryocytic cell line MEG-01S was obtained from the American Type Culture Collection. MEG-01S were maintained in the same media as for BMM, supplemented with 1 mM Sodium Pyruvate (Invitrogen).
# (§2) BMM were seeded overnight at 2 x 10^5 cells/ml in 24 well plates before treatment with compound at either 10 µM or 0.1 - 100 µM for 24 h in the presence or absence of lipopolysaccharide (LPS) from Salmonella Minnesota (Sigma-Aldrich) at a final concentration of 10 ng/ml. MEG-01S were seeded at 2 x 10^5 cells/ml and stimulated with PMA (Phorbol 12-myristate 13-acetate) (Sigma-Aldrich) at a final concentration of 0.1 µM for 16 h.
# The compound was tested with 10 µM of compound and LPS (10 ng/ml) for 24 h. […] (Student's t test).
# [2] = tested on: mouse primary bone marrow-derived macrophages (BMM); experiment: LPS-inducible PGE2, 6-keto PGF1α and TXB2 production from BMM (EIA), specificity; assay type: cell-based; details: 24 h
# Description: as §1, §2
# BMM = BMM cell viability by MTT assay; assay type: cell-based, mouse; details: at 10 µM or 100 µM, LPS, 24 h (Figure 1B)
# Description: (§3) All bone marrow-derived macrophages (BMM) were obtained by culturing bone marrow cells from the femurs of 6 to 8 week old C57BL/6 male mice in RPMI 1640 medium (Invitrogen Life Technologies, Carlsbad, CA, USA) supplemented with 10 % Fetal calf serum (Invitrogen) 20 U/ml penicillin and 20 µg/ml streptomycin (Invitrogen), 2 mM L-glutamine (Glutamax-1, Invitrogen) in the presence of 10^4 U/ml (100 ng/mL) recombinant human CSF-1 (a gift from Chiron, Emeryville, CA) on bacteriological plastic plates for 7 days. The human megakaryocytic cell line MEG-01S was obtained from the American Type Culture Collection. MEG-01S were maintained in the same media as for BMM, supplemented with 1 mM Sodium Pyruvate (Invitrogen).
# (§4) Known inhibitors 1 and 2, along with compound 3, were used to treat BMM at three doses (10, 30, 100 µM) in the presence of LPS for 24 h and cell viability was measured by MTT assay. BMM were seeded at 1 x 10^5 cells/well in 96 well plates and treated for 24 h with LPS (10 ng/ml) and compounds at 10, 30 and 100 µM. MEG-01S were PMA differentiated overnight before compounds were added for a further 24 h at 10, 30 and 100 µM. Cell viability was measured by MTT (Sigma-Aldrich) assay as described previously (Irvine, FASEB J, 2006).
# MEG-01S = MEG-01S cell viability by MTT assay; assay type: cell-based, human; details: 24 h treatment, 0-100 µM (Figure 3B)
# Description: as §3
# as §4, with “MEG-01S were PMA differentiated overnight before compounds were added for a further 24 h at 10, 30 and 100 µM.” left out
# The effect of the compounds on MEG-01S cell viability was measured by MTT assay after 24 h treatment across the concentration range 0 - 100 µM of compounds (Figure 3B). […]
# [3] = Rat pharmacokinetics, plasma concentration by LC-MS/MS after oral dose; assay type: in vivo, Sprague Dawley rats
# Description: (§5) Male adult Sprague Dawley rates (~165g) received a single oral bolus dose of 40mg/kg of compound 3 in a 0.5% methylcellulose/0.1% Tween80 by oral gavage. Rats were sacrificed when collecting blood and spleen samples just prior to dosing and at 0.5 hours, 2h, 8h and 24h (n=3 rats per time point), and the plasma concentration of compound 3 and the spleen PGD2 concentration was measured at each time point.
# Blood samples were removed and kept cold at approximately 4°C immediately after collection to minimize degradation and centrifuged as soon as possible at approximately 4000 x g for 10 min. The plasma was transferred to a clean, pre-labelled polypropylene tube and frozen. Samples were stored at -20°C as soon as possible after collection to minimise degradation of the test item.
# Plasma concentrations of 3 were determined using a screening LC-ms/ms method developed using the following parameters:
# Samples were analysed alongside plasma standards. Concentration data were determined by back calculation from standard curve.
# spleen PGD2 = experiment: Rat target modulation assay, spleen PGD2 by LC-MS/MS; assay type: in vivo, Sprague Dawley rats; details: 8 hour time point, 40mg/kg oral
# Description: as §5
# Spleens were excised, weighed and snap frozen in a dry ice/ethanol bath. Tissues were stored at -80°C until analysis. […] Samples were centrifuged at 2500 rpm for 5 min at 4°C. The resultant supernatant was diluted and the measurement of PGD2 was determined by solid-phase extraction (SPE) using cationic solid-phase extraction cartridges. The SPE eluent was assayed using a screening LC-MS/MS method against aqueous PGD2 standards, using the following LC-MS/MS parameters: […]
structure (smiles),measurement,setting,value
"NC(=O)[C@H](Cc1ccccc1)NC(=O)c1ccc(-c2cccs2)nc1 [Compound 3, N-(1-amino-1-oxo-3-phenylpropan-2-yl)-6-(thiophen-2-yl)-nicotinamide]",EC50 fold better than that estimated for 1,"[1]; BMM PGD2 production, compound 3 versus compound 1",~30 fold
same,inhibition of PGD2 production,"[1]; BMM, LPS, 24 h, 0-100 µM (Figure 2A)",inhibited PGD2 production in the sub-micromolar range dose-dependently
same,PGD2 levels,"[1]; BMM, LPS, 24 h, at 1 µM",significantly inhibiting
same,EC50,"[1]; Mus musculus, Macrophage, BMM, LPS 10 ng/ml, 24 h, 0-100 µM compound, read-out: EC50 estimated for inhibition of PGD2 production",~290 nM
same,"concentration above which PGE2, 6-keto PGF1α and TXB2 inhibition was observed",[2],above 10 µM
same,"differential effect in inhibition of PGD2 versus PGE2, 6-keto PGF1α or TXB2 (selectivity)",[2]; 0-100 µM,striking selectivity
same,BMM viability,BMM,did not affect BMM viability
same,MEG-01S cell viability,MEG-01S,little effect
same,Concentration,"[3]; individual rat, 0.5 h after 40mg/kg oral gavage",263 ng/mL and 218 ng/mL
same,Concentration,"[3]; individual rat, 2 h after 40mg/kg oral gavage",73.5 ng/mL and 107 ng/mL
same,Concentration,"[3]; individual rat, 8 h after 40mg/kg oral gavage",17.3 ng/mL and 63.9 ng/mL and 51.8 ng/mL
same,Concentration (ng/mL),"[3]; individual rat, 24 h after 40mg/kg oral gavage",BLOQ^2
same,concentration at 0.5 h,"[3]; male, Sprague Dawley, rat, plasma, oral, 40 mg/kg, 0.5 h after 40mg/kg oral gavage, N 3, read-out: Mean (± sem) Concentration",219 ± 24.8 ng/mL
same,concentration at 2 h,"[3]; male, Sprague Dawley, rat, plasma, oral, 40 mg/kg, 2 h after 40mg/kg oral gavage, N 3, read-out: Mean (± sem) Concentration",91.8 ± 9.79 ng/mL
same,concentration at 8 h,"[3]; male, Sprague Dawley, rat, plasma, oral, 40 mg/kg, 8 h after 40mg/kg oral gavage, N 3, read-out: Mean (± sem) Concentration",44.3 ± 14 ng/mL
same,concentration at 24 h,"[3]; male, Sprague Dawley, rat, plasma, oral, 40 mg/kg, 24 h after 40mg/kg oral gavage, N 3, BLOQ treated as 0.5 ng/mL, read-out: Mean (± sem) Concentration",0.677 ± 0.177 ng/mL
same,concentration at 0.5 h,"[3]; male, Sprague Dawley, rat, plasma, oral, 40 mg/kg, individual rat, 0.5 h after 40mg/kg oral gavage, read-out: Concentration",177 ng/mL
same,concentration at 2 h,"[3]; male, Sprague Dawley, rat, plasma, oral, 40 mg/kg, individual rat, 2 h after 40mg/kg oral gavage, read-out: Concentration",94.8 ng/mL
same,concentration at 24 h,"[3]; male, Sprague Dawley, rat, plasma, oral, 40 mg/kg, individual rat, 24 h after 40mg/kg oral gavage, read-out: Concentration",1.03 ng/mL
same,oral bioavailability,"[3]; rat, 40mg/kg oral gavage",orally bioavailable
same,presence in the serum,"[3]; rat, 8 hours post delivery, 40mg/kg oral",present
same,reduction in PGD2 activity,spleen PGD2,20%
